Reference: US20220401469A1, “PROCESS FOR PREPARATION OF BIOLOGICALLY ACTIVE COPOLYMER” (RECCE PHARMACEUTICALS LTD, priority 2020, published 2022)
Where “and” joins values, the source holds several entries; their conditions need not be identical. Equal values may be shown once. Marks after values point to notes of the source that are not given here.

Experiments:
E. coli [ATCC 25922] = test: Ascending Urinary Tract Infection Rat Model (kidneys, bladder); assay type: in vivo
[1] = tested on: Neisseria gonorrhoea (ATCC700825); conditions: in vivo, 50 mg/kg
[2] = tested on: Neisseria gonorrhoea (ATCC700825); test: Mouse vaginal infection model; conditions: mice; Meropenem IV bolus 50 mg/kg for seven days; p<0.05
[3] = tested on: Influenza A virus (H1N1) Strain: A/NWS/33; test: Mouse influenza model (C57BL/6), body weights and lung viral titers; assay type: in vivo
[4] = tested on: Staphylococcus aureus [ATCC 43300]; test: Burn Wound Infection Model in rats; assay type: in vivo
[5] = Meropenem 30 mg/kg single dose i.v. bolus
[6] = Meropenem 30 mg/kg single dose i.v. bolus, individual animals
[7] = Meropenem single IV bolus 30 mg/kg, E1 50 and 500 mg/kg i.v. 24 h infusion

For C[C@@H](O)[C@H]1C(=O)N2C(C(=O)O)=C(S[C@@H]3CN[C@H](C(=O)N(C)C)C3)[C@H](C)[C@H]12 [Meropenem], the “Mean Log10CFU/g Bladder change (wrt 4 h PI control: 6.54 Log10CFU/g Bladder)” value (E. coli [ATCC 25922]; [5]) was −1.11 Log10CFU/g, the “Mean Log10CFU/g kidney change (wrt 4 h PI control: 4.73 Log10CFU/g kidneys)” value (E. coli [ATCC 25922]; [5]) was −1.27 Log10CFU/g and the “Mean ± SD (Log10 CFU/g Bladder)” value (E. coli [ATCC 25922]; [5]) was 5.43 ± 0.36 Log10 CFU/g Bladder. The “Mean ± SD (Log10 CFU/g kidneys)” value (E. coli [ATCC 25922]; [5]) was 3.46 ± 0.19 Log10 CFU/g kidneys, the “Log10 CFU/g Bladder” value (E. coli [ATCC 25922]; [6]) was 5.04 Log10 CFU/g and 5.24 Log10 CFU/g and 5.91 Log10 CFU/g and 5.25 Log10 CFU/g and 5.71 Log10 CFU/g and the “Log 10 CFU/g Kidneys Left kidney” value (E. coli [ATCC 25922]; [6]) was 3.46 Log 10 CFU/g (2×) and 3.61 Log 10 CFU/g and 3.41 Log 10 CFU/g and 3.37 Log 10 CFU/g. For the same compound, the “Log 10 CFU/g Kidneys Right kidney” value (E. coli [ATCC 25922]; [6]) was 3.36 Log 10 CFU/g and 3.69 Log 10 CFU/g and 3.80 Log 10 CFU/g and 3.16 Log 10 CFU/g and 3.31 Log 10 CFU/g, the “antibacterial activity in kidneys compared to vehicle control” value (E. coli [ATCC 25922]; [7]) was “significant bactericidal activity in kidneys” and the “antibacterial activity in the bladder compared to vehicle control” value (E. coli [ATCC 25922]; [7]) was “significant bactericidal activity in the bladder”. For the same compound, the Clinical signs [1] was “N” and the “bactericidal activity in vaginal load compared to vehicle control” value [2] was “significant bactericidal activity in vaginal load”.
With NC(=O)c1ncn([C@@H]2O[C@H](CO)[C@@H](O)[C@H]2O)n1 [Ribavirin] the “body weights compared to vehicle control on day 4” value ([3]; Ribavarin, E1 25, 50 and 100 mg/kg, CE3 100, 500 and 1000 mg/kg, p<0.05) was “significantly higher body weights”, the “viral growth rate and viral load in the lungs compared to vehicle control” value ([3]; Ribavirin 66 mg/kg IP, E1 25-100 mg/kg, CE3 100-1000 mg/kg iv bid) was “significantly reduced the viral growth rate and viral load in the lungs” and the “viral titres compared to vehicle control on day 4” value ([3]; Ribavirin, E1 25, 50 and 100 mg/kg, CE3 100, 500 and 1000 mg/kg, p<0.05) was “significantly lower viral titres”. The “Body weights Mean” value ([3]; mice infected with H1N1, Ribavarin 66 mg/kg i.p., Day 0) was 23.92 g, the “Body weights Mean” value ([3]; mice infected with H1N1, Ribavarin 66 mg/kg i.p., Day 1) was 23.50 g and the “Body weights Mean” value ([3]; mice infected with H1N1, Ribavarin 66 mg/kg i.p., Day 2) was 24.22 g. The “Body weights Mean (g)” value ([3]; mice infected with H1N1, Ribavarin 66 mg/kg i.p., Day 4) was 24.67* g, the “Body weights Mean” value ([3]; mice infected with H1N1, Ribavarin 66 mg/kg i.p., Day 6) was 24.70 g and the “body weight through the study” value ([3]; mice infected with H1N1, Ribavirin 66 mg/kg once daily IP) was “no significant decrease in body weight”.
Saframycin was tested, and the “bacterial load on day 4 compared to day 1” value ([4]; E1, CE3 100 μl (19.15 mg/ml) topical 3 days, Saframycin 30 mg topical b.i.d 3 days) was “did not show significant efficacy on day 4 when compared to day 1”, the “% wound contraction on Day 4 PI (Mean ± SD)” value ([4]; E1, CE3 100 μl (19.15 mg/ml) topical 3 days, Safromycin 30 mg topical b.i.d 3 days) was 2.48 ± 0.30% and the “wound reduction on day 4 compared to vehicle control” value ([4]; E1, CE3 100 μl (19.15 mg/ml) topical 3 days, Safromycin 30 mg topical b.i.d 3 days, p<0.05) was “significant reduction wound on day 4”. For the same compound, the “Bacterial Load on skin post treatment Day 1 PI” value ([4]; Mean ± SD, E1, CE3 100 μl (19.15 mg/ml) topical u.i.d 3 days, Safromycin 30 mg topical b.i.d 3 days, Day 1 PI) was 5.84 ± 0.35 Logic CFU/Swab and the “Bacterial Load on skin post treatment Day 4 PI” value ([4]; Mean ± SD, E1, CE3 100 μl (19.15 mg/ml) topical u.i.d 3 days, Safromycin 30 mg topical b.i.d 3 days, Day 4 PI) was 4.87 ± 0.63 Logic CFU/Swab.
